{"source": "patent US20110111972A1", "about": "“SELECTIVITY PROFILING OF PI3K INTERACTING MOLECULES AGAINST MULTIPLE TARGETS” (CELLZOME AG, priority 2008, published 2011)", "type_in_all_cases": "binding", "key": {"PI3K gamma": {"target": "T1, PI3K gamma (Homo sapiens, UniProt P48736)", "T1 construct": "PI3K gamma protein was captured by immobilized phenylthiazole ligand 1 from MOLT-4 cell lysate; endogenous in cells; host or cells: MOLT-4 (ATCC CRL-1582) cell lysate", "assay": "Drug pulldown with immobilized phenylthiazole ligand 1, Western blot detection", "details": "MOLT-4 cell lysate", "method": "(§1) As biological material a cell lysate prepared from MOLT-4 cells was used. The drug pulldown experiment was performed as described in Example 2 with lysate samples containing 50 mg of protein. Captured proteins were eluted with DMSO containing buffer (lane 1), 100 μM of free phenylthiazole ligand 1 or SDS sample buffer (lane 3). The eluted samples were separated on SDS-polyacrylamide gels and transferred to membranes. The blots were first incubated with specific antibodies directed against PI3K gamma (FIG. 2A) and PI3K delta (FIG. 2B). Secondary detection antibodies labeled with fluorescent dyes for detection were used with the Odyssey infrared imaging system. Lane 1: DMSO elution control; lane 2: elution with 100 μM free phenylthiazole ligand 1; lane 3: SDS elution. […]\n(§2) For Western blot analysis bound proteins were eluted from the affinity matrix and subsequently separated by SDS-Polyacrylamide gel elecrophoresis. PI3K gamma and PI3K delta were detected with specific antibodies (FIG. 2).\n(§3) MOLT-4 cells were homogenized in a Potter S homogenizer in lysis buffer: 50 mM Tris-HCl, 0.8% NP40, 5% glycerol, 150 mM NaCl, 1.5 mM MgCl2, 25 mM NaF, 1 mM sodium vanadate, 1 mM DTT, pH 7.5. […] The supernatant was transferred again to a fresh 50 ml falcon tube, the protein concentration was determined by a Bradford assay (BioRad) and samples containing 50 mg of protein per aliquot were prepared. […]"}, "PI3K delta": {"target": "T2, PI3K delta (Homo sapiens, UniProt O00329)", "T2 construct": "endogenous in cells; host or cells: MOLT-4 (ATCC CRL-1582) cell lysate", "T2 sequence (O00329 whole entry)": "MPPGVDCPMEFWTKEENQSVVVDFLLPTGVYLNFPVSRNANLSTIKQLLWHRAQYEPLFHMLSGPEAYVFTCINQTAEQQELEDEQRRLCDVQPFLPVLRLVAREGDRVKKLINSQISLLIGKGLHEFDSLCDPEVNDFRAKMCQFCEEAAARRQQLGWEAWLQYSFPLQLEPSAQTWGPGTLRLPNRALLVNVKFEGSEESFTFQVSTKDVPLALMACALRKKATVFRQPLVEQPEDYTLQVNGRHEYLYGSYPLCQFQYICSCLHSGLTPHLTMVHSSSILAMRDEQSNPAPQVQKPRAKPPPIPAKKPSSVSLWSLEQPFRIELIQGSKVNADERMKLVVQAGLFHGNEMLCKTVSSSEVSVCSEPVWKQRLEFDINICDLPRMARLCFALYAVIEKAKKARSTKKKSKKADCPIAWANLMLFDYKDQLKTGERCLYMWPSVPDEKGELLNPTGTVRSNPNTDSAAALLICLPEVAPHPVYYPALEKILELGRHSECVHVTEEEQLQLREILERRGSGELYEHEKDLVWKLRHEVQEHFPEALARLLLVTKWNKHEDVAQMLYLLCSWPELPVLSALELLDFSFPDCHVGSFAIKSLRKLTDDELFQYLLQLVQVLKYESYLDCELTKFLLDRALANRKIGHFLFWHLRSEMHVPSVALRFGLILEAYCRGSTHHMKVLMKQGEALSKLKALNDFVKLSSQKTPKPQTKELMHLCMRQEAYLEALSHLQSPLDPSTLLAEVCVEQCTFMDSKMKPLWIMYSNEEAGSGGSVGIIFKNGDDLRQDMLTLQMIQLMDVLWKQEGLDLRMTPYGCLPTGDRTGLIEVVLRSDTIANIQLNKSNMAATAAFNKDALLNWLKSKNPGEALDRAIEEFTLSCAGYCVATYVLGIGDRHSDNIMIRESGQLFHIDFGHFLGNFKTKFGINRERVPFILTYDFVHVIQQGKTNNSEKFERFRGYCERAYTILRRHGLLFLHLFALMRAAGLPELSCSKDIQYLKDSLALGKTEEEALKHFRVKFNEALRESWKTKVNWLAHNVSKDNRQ", "T2 sequence (P27986 whole entry partner)": "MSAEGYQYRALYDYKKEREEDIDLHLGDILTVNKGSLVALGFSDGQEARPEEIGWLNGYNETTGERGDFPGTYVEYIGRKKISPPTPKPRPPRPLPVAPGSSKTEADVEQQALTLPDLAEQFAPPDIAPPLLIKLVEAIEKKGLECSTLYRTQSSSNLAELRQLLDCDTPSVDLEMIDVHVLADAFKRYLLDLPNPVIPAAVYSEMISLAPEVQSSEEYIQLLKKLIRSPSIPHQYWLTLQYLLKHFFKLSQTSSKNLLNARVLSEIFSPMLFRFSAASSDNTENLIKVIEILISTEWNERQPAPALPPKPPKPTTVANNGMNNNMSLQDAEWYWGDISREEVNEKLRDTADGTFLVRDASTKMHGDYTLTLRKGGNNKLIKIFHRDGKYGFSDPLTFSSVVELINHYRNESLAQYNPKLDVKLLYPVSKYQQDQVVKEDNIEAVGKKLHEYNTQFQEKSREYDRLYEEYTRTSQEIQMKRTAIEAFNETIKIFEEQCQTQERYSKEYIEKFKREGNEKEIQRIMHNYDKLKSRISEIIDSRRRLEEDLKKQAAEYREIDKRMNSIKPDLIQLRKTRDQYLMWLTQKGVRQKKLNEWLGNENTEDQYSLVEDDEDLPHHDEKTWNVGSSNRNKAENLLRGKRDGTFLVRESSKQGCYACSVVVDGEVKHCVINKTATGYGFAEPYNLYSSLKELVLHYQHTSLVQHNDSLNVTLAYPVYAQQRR", "assay": "Drug pulldown with immobilized phenylthiazole ligand 1, Western blot detection", "details": "MOLT-4 cell lysate", "method": "as §1, §2, §3"}, "DNA-PK": {"target": "T3, DNA-PK (Homo sapiens, UniProt P78527)", "T3 construct": "with a 1:1 mixture of Jurkat and Ramos cell lysate sample containing 50 mg of protein; endogenous in cells; host or cells: 1:1 mixture of Jurkat and Ramos cell lysates", "assay": "Drug pulldown with immobilized phenylthiazole ligand 1, mass spectrometry analysis", "details": "1:1 mixture of Jurkat and Ramos cell lysate", "from_the_text": "(§4) A protein gel after staining with Coomassie blue is shown. The indicated gel areas were cut out as gel slices and proteins were subjected to analysis by mass spectrometry. […] Proteins bound to immobilized phenylthiazole ligand 1 were eluted with SDS sample buffer and separated by SDS-polyacrylamide gel electrophoresis (SDS-PAGE). The following proteins were identified in this experiment: DNA-PK, ATM, and mTOR. […] Beads were collected, transfered to Mobicol-columns (MoBiTech 10055) and washed with 10 ml lysis buffer containing 0.5% NP40 detergent, followed by 5 ml lysis buffer with 0.25% detergent. […] Proteins were then separated by SDS-Polyacrylamide electrophoresis (SDS-PAGE). Gel-separated proteins were reduced, alkylated and digested in gel essentially following the procedure described by Shevchenko et al., 1996, Anal. Chem. 68:850-858. Briefly, gel-separated proteins were excised from the gel using a clean scalpel, reduced using 10 mM DTT (in 5 mM ammonium bicarbonate, 54° C., 45 min) and subsequently alkylated with 55 mM iodoacetamid (in 5 mM ammonium bicarbonate) at room temperature in the dark (30 minutes). Reduced and alkylated proteins were digested in gel with porcine trypsin (Promega) at a protease concentration of 12.5 ng/μl in 5 mM ammonium bicarbonate. Digestion was allowed to proceed for 4 hours at 37° C. and the reaction was subsequently stopped using 5 μl 5% formic acid. Gel plugs were extracted twice with 20 μl 1% TFA and pooled with acidified digest supernatants. […] Peptide samples were injected into a nano LC system (CapLC, Waters or Ultimate, Dionex) which was directly coupled either to a quadrupole TOF (QTOF2, QTOF Ultima, QTOF Micro, Micromass) or ion trap (LCQ Deca XP) mass spectrometer. […] Proteins were identified by correlating the measured peptide mass and fragmentation data with the same data computed from the entries in the database using the software tool Mascot (Matrix Science; Perkins et al., 1999. Probability-based protein identification by searching sequence databases using mass spectrometry data. Electrophoresis 20, 3551-3567). […]"}, "ATM": {"target": "T4, ATM (Homo sapiens, UniProt Q13315)", "T4 construct": "with a 1:1 mixture of Jurkat and Ramos cell lysate sample containing 50 mg of protein; endogenous in cells; host or cells: 1:1 mixture of Jurkat and Ramos cell lysates", "T4 sequence (Q13315 whole entry)": "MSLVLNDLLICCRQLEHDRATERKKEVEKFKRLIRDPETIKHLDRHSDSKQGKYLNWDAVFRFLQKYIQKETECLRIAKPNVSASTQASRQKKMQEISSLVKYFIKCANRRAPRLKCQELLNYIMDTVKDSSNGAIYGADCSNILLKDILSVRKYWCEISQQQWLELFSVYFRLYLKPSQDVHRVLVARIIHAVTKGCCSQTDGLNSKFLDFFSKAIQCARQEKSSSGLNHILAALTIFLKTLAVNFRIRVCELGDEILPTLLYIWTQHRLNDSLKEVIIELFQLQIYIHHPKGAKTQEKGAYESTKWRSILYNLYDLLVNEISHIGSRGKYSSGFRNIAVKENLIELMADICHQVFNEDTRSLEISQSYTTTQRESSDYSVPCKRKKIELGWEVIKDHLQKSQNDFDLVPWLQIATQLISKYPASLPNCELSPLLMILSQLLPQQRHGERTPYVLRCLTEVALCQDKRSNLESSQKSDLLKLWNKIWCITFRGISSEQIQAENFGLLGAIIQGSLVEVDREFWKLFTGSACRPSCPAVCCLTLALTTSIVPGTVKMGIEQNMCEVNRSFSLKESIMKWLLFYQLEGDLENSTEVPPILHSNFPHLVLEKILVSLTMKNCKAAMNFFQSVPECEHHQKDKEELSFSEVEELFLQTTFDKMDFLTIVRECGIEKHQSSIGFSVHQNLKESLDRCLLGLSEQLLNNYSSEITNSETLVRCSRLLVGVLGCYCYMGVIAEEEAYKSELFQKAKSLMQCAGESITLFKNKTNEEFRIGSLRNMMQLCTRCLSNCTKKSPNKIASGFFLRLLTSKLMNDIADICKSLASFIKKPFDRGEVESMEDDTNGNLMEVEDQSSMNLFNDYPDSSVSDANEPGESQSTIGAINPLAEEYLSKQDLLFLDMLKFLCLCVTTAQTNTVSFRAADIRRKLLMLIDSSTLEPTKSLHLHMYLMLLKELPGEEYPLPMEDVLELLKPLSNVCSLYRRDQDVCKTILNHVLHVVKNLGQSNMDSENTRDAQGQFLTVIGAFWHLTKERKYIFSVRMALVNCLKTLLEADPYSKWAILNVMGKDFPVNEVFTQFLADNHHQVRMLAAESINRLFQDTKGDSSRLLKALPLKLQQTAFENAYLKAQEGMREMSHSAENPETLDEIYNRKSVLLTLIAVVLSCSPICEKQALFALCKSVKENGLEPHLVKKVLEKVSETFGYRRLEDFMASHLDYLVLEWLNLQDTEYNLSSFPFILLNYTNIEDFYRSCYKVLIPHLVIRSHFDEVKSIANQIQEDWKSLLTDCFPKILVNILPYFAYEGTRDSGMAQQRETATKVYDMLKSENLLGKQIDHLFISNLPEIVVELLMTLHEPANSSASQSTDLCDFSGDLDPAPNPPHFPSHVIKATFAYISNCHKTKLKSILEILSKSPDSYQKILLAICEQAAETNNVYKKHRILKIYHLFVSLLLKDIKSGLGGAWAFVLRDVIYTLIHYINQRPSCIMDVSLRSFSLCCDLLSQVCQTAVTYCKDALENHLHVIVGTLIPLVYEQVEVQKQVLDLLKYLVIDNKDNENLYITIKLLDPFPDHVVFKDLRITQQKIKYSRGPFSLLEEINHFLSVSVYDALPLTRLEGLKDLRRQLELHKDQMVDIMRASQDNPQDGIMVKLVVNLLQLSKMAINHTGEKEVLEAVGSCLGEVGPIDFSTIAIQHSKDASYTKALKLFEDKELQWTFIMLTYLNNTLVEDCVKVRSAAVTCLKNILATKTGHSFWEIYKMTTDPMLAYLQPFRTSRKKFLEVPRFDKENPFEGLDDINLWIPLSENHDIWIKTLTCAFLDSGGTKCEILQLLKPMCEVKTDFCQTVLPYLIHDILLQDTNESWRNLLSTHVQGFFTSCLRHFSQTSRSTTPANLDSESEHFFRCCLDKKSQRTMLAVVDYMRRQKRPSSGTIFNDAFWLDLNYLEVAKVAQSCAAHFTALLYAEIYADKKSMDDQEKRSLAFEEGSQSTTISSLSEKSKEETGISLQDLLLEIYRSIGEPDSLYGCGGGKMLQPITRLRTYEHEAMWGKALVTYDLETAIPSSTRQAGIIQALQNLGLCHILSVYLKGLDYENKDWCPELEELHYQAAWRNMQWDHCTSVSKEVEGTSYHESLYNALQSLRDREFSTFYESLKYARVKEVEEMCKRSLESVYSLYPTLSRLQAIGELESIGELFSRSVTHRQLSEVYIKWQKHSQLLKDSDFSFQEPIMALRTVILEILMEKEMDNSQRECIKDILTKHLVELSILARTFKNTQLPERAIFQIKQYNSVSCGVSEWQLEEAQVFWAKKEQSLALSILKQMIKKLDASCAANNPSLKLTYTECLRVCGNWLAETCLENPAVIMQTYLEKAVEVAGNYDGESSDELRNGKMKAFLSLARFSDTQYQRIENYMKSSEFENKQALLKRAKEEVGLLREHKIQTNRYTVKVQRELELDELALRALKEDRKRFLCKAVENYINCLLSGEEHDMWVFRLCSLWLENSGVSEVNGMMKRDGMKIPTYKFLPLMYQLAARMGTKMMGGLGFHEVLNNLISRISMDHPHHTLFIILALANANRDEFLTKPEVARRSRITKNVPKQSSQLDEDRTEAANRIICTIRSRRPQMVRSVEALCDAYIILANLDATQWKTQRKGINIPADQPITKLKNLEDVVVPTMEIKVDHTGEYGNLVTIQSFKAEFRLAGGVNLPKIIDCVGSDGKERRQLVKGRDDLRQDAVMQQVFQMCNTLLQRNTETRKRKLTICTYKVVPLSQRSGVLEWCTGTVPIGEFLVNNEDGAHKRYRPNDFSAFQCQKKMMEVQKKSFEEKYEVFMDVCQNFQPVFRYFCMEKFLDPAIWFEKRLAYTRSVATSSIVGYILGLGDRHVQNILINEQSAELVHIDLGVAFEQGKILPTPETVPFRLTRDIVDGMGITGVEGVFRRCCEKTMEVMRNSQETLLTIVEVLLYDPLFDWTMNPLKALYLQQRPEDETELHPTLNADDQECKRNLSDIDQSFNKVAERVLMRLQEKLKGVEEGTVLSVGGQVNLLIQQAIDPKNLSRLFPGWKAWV", "assay": "Drug pulldown with immobilized phenylthiazole ligand 1, mass spectrometry analysis", "details": "1:1 mixture of Jurkat and Ramos cell lysate", "from_the_text": "as §4"}, "mTOR": {"target": "T5, mTOR (Homo sapiens, UniProt P42345)", "T5 construct": "with a 1:1 mixture of Jurkat and Ramos cell lysate sample containing 50 mg of protein; endogenous in cells; host or cells: 1:1 mixture of Jurkat and Ramos cell lysates", "assay": "Drug pulldown with immobilized phenylthiazole ligand 1, mass spectrometry analysis", "details": "1:1 mixture of Jurkat and Ramos cell lysate", "from_the_text": "as §4"}}, "data": [{"molecule": "Cc1nc(NC(=O)CCOCCOCCOCCOCCN)sc1-c1ccc(Cl)c(S(C)(=O)=O)c1.Cl", "note": "[phenylthiazole ligand 1, 3-(2-{2-[2-(2-amino-ethoxy)-ethoxy]-ethoxy}-ethoxy)-N-[5-(4-chloro-3-methanesulfonyl-phenyl)-4-methyl-thiazol-2yl]-propionamide hydrochloride]", "values": [{"measurement": "capture (pulldown) of PI3K gamma from cell lysate", "setting": "PI3K gamma", "value": "captures (pulls down)"}, {"measurement": "capture (pulldown) of PI3K delta from cell lysate", "setting": "PI3K delta", "value": "captures (pulls down)"}, {"measurement": "DNA-PK bound to immobilized ligand, identified by mass spectrometry", "setting": "DNA-PK", "value": "identified"}, {"measurement": "ATM bound to immobilized ligand, identified by mass spectrometry", "setting": "ATM", "value": "identified"}, {"measurement": "mTOR bound to immobilized ligand, identified by mass spectrometry", "setting": "mTOR", "value": "identified"}]}]}
